In article PMC6717004 (Toxicology in vitro : an international journal published in …, 2019):
Where two headings read alike, the source gives them in different places. Marks after values point to notes of the source that are not given here.

How the values were obtained:
human plasma [1] = conditions: cited from earlier work; for reported Fub based on RED: human plasma, ref Wetmore et al.
pooled human plasma [2] = assay: Rapid Equilibrium Dialysis; type: in vitro ADME; conditions: 10 μM, 37 °C, 4 hours, 8K MWCO membrane
[3] = type: in vitro ADME; conditions: RED with PBS in both chambers, 10 μM, 4 hours, 8K MWCO
human plasma [4] = conditions: ref Musteata et al., 2006; cited from earlier work
pooled human plasma [5] = assay: Solid Phase Micro-Extraction; type: in vitro ADME; conditions: 10 μM, room temperature, C18 fibers
[6] = ref Wetmore, 2015, Wetmore et al., 2012

Compound: c1cc2c3c(cccc3c1)CC2 [Acenaphthene]
- Literature % unbound (equilibrium dialysis) (human plasma [1]; [6]): 4.5%^b

Compound: c1ccc(-c2ccccc2)cc1 [Biphenyl]
- Literature % unbound (equilibrium dialysis) (human plasma [1]): 1.6%^b

Compound: CNC(=O)Oc1cccc2ccccc12 [Carbaryl]
- reported Fub based on RED (human plasma [1]; 2012): 70%
- Literature % unbound (equilibrium dialysis) (human plasma [1]; [6]): 69%^b

Compound: COc1cc(N)c(Cl)cc1C(=O)NC1CCN(CCCOc2ccc(F)cc2)CC1OC (stereo not drawn) [Cisapride, reference compound]
- Literature % unbound (equilibrium dialysis) (human plasma [1]; ref FDA package insert): 2-3%^c
- unbound fraction (Fub) by RED (pooled human plasma [2]): most highly bound

Compound: CC(C)NCC(O)c1ccc(O)c(O)c1 (stereo not drawn) [Isoproterenol, reference compound]
- Literature % unbound (equilibrium dialysis) (human plasma [1]; ref Kelly and McDevitt, 1978): 35%^a
- unbound fraction (Fub) by RED (pooled human plasma [2]): mostly free

Compound: c1ccc2ccccc2c1 [Naphthalene]
- protein-free free fraction (equilibration percentage) [3]: > 80%
- reported Fub based on RED (human plasma [1]; 2012): ~ 2%

Compound: CC1(C)C(C=C(Cl)Cl)C1C(=O)OCc1cccc(Oc2ccccc2)c1 (stereo not drawn) [Permethrin]
- reported Fub based on RED (human plasma [1]; 2012): 0%

Compound: Cc1nc(N(C)C)nc(OC(=O)N(C)C)c1C [Pirimicarb]
- Literature % unbound (equilibrium dialysis) (human plasma [1]; [6]): 16%^b

Compound: CC(C)NCC(O)COc1cccc2ccccc12 (stereo not drawn) [Propranolol]
- Literature % unbound (SPME) (human plasma [4]): 25%^e
- unbound fraction (Fub) by SPME (pooled human plasma [5]): consistent with the reported value

Compound: c1cc2ccc3cccc4ccc(c1)c2c34 [Pyrene]
- Literature % unbound (equilibrium dialysis) (human plasma [1]; [6]): 2.4%^b
